Legend:
Dermacentor variabilis = experiment: Long lasting efficacy against D. variabilis on dogs (Example 6, Table 53); format: in vivo
Protocol: Forty two beagles were allotted to seven groups of six dogs each. Groups 1 and 2 served as untreated controls. Groups 3, 4 and 5 were each treated on Day 0 with three different compositions of the invention described in Tables 30, 31 and 32, respectively, containing Compound A in an amount to deliver a dose of about 20 mg/kg of body weight. Similarly, on Day 0, Groups 6 and 7 were each treated with the compositions described in Tables 30 and 32, respectively, containing Compound A to deliver a dose of about 20 mg/kg of body weight.
Dogs in Groups 1, 3, 4 and 5 were infested with approximately 50 A. americanum and dogs in Groups 2, 6 and 7 were infested with approximately 50 D. variabilis on Days −1, 42, 56, 70, 77, 84, 91 and 98. Dogs in Groups 1, 2, 3, 6 and 7 were also infested on Day 105. Ticks were counted upon removal at approximately 48 hours post treatment on Day 2 and 48 hours post infestation on Days 44, 58, 72, 79, 86, 93, 100 and 107. Tables 52 and 53 below show the exceptional long-lasting efficacy of the inventive compositions against A. americanum and D. variabilis.

[1] = tested on: fleas (Ctenocephalides felis); experiment: Efficacy of soft chews against induced flea infestations on dogs (Example 2); format: in vivo; settings: for % Reduction Fleas: soft chew of Table 6, once on Day 0, dogs; for Percent reduction (efficacy) against fleas: Table 6 soft chew, treated once on Day 0, dogs
Protocol: Sixteen beagles were studied to determine the effectiveness of a soft chewable veterinary composition comprising Compound A against induced infestations of Dermacentor variabilis and Ctenocephalides felis.
Four Treatment Groups containing four dogs each were formed. Dogs in Group 1 were untreated. […] All dogs were treated once on Day 0.
All dogs were infested with approximately 100 C. felis on Days −1, 8, 15, 22, 29, 35, 43, 57 and 71. All dogs were also infested with approximately 50 D. variabilis on Days −1, 7, 14, 21, 28, 34 and 42. Both ticks and fleas were counted upon removal on Days 2, 9, 16, 23, 30, 36 and 44. Fleas were counted upon removal for all Treatment Groups on Days 58 and 72.

O=C(CNC(=O)c1ccc(C2=NOC(c3cc(Cl)cc(C(F)(F)F)c3)(C(F)(F)F)C2)c2ccccc12)NCC(F)(F)F (centres unmarked) [Compound A, 4-[5-[3-chloro-5-(trifluoromethyl)phenyl]-4,5-dihydro-5-(trifluoromethyl)-3-isoxazolyl]-N-[2-oxo-2-[(2,2,2-trifluoroethyl)amino]ethyl]-1-naphthalenecarboxamide]
% Reduction Ticks (Dermacentor variabilis; Group 6, composition of Table 30, about 20 mg/kg once on Day 0, dogs, Day 100): 99.4%
% Reduction Ticks (Dermacentor variabilis; Group 6, composition of Table 30, about 20 mg/kg once on Day 0, dogs, Day 107): 99.4%
% Reduction Ticks (Dermacentor variabilis; Group 7, composition of Table 32, about 20 mg/kg once on Day 0, dogs, Day 2): 100.0%
% Reduction Ticks (Dermacentor variabilis; Group 7, composition of Table 32, about 20 mg/kg once on Day 0, dogs, Day 44): 100.0%
% Reduction Ticks (Dermacentor variabilis; Group 7, composition of Table 32, about 20 mg/kg once on Day 0, dogs, Day 58): 100.0%
% Reduction Ticks (Dermacentor variabilis; Group 7, composition of Table 32, about 20 mg/kg once on Day 0, dogs, Day 72): 100.0%
% Reduction Ticks (Dermacentor variabilis; Group 7, composition of Table 32, about 20 mg/kg once on Day 0, dogs, Day 79): 100.0%
% Reduction Ticks (Dermacentor variabilis; Group 7, composition of Table 32, about 20 mg/kg once on Day 0, dogs, Day 86): 100.0%
% Reduction Ticks (Dermacentor variabilis; Group 7, composition of Table 32, about 20 mg/kg once on Day 0, dogs, Day 93): 97.9%
% Reduction Ticks (Dermacentor variabilis; Group 7, composition of Table 32, about 20 mg/kg once on Day 0, dogs, Day 100): 100.0%
% Reduction Ticks (Dermacentor variabilis; Group 7, composition of Table 32, about 20 mg/kg once on Day 0, dogs, Day 107): 100.0%
% Reduction Fleas ([1]; Group 2, approximately 1.5 mg/kg, Day 2): 100.0%
% Reduction Fleas ([1]; Group 2, approximately 1.5 mg/kg, Day 9): 100.0%
% Reduction Fleas ([1]; Group 2, approximately 1.5 mg/kg, Day 16): 100.0%
% Reduction Fleas ([1]; Group 2, approximately 1.5 mg/kg, Day 23): 100.0%
% Reduction Fleas ([1]; Group 2, approximately 1.5 mg/kg, Day 30): 100.0%
% Reduction Fleas ([1]; Group 2, approximately 1.5 mg/kg, Day 36): 99.2%
% Reduction Fleas ([1]; Group 2, approximately 1.5 mg/kg, Day 44): 97.8%
% Reduction Fleas ([1]; Group 2, approximately 1.5 mg/kg, Day 58): 89.4%
% Reduction Fleas ([1]; Group 2, approximately 1.5 mg/kg, Day 72): 79.6%
% Reduction Fleas ([1]; Group 3, approximately 2.5 mg/kg, Day 2): 100.0%
% Reduction Fleas ([1]; Group 3, approximately 2.5 mg/kg, Day 9): 100.0%
% Reduction Fleas ([1]; Group 3, approximately 2.5 mg/kg, Day 16): 100.0%
% Reduction Fleas ([1]; Group 3, approximately 2.5 mg/kg, Day 23): 100.0%
% Reduction Fleas ([1]; Group 3, approximately 2.5 mg/kg, Day 30): 100.0%
% Reduction Fleas ([1]; Group 3, approximately 2.5 mg/kg, Day 36): 100.0%
% Reduction Fleas ([1]; Group 3, approximately 2.5 mg/kg, Day 44): 99.3%
% Reduction Fleas ([1]; Group 3, approximately 2.5 mg/kg, Day 58): 96.7%
% Reduction Fleas ([1]; Group 3, approximately 2.5 mg/kg, Day 72): 94.4%
% Reduction Fleas ([1]; Group 4, approximately 3.5 mg/kg, Day 2): 100.0%
% Reduction Fleas ([1]; Group 4, approximately 3.5 mg/kg, Day 9): 100.0%
% Reduction Fleas ([1]; Group 4, approximately 3.5 mg/kg, Day 16): 100.0%
% Reduction Fleas ([1]; Group 4, approximately 3.5 mg/kg, Day 23): 100.0%
% Reduction Fleas ([1]; Group 4, approximately 3.5 mg/kg, Day 30): 100.0%
% Reduction Fleas ([1]; Group 4, approximately 3.5 mg/kg, Day 36): 99.6%
% Reduction Fleas ([1]; Group 4, approximately 3.5 mg/kg, Day 44): 98.3%
% Reduction Fleas ([1]; Group 4, approximately 3.5 mg/kg, Day 58): 95.2%
% Reduction Fleas ([1]; Group 4, approximately 3.5 mg/kg, Day 72): 80.6%
Percent reduction (efficacy) against fleas ([1]; through Day 44, all groups (approx. 1.5, 2.5 or 3.5 mg/kg)): above 95%
Percent reduction (efficacy) against fleas ([1]; through Day 58, Groups 3 and 4): above 95%
Percent reduction (efficacy) against fleas ([1]; through and including Day 30, all treatment groups (approx. 1.5, 2.5 or 3.5 mg/kg)): 100%
